The text below walks through data of patent US5624831A, “Immobilized acetylcholinesterase stabilized by a film of gelatin or albumin containing trehalose” (priority 1994, dated 1997).

One series addresses T1, torpedo fish AchE (Torpedo marmorata, UniProt P07692).
T1 construct: from tissue
Nature of the series: Analysis of 5 pesticides dissolved in water by inhibition of immobilized AchE (Table VIII). The series is classed as biochemical. As to conditions: for times less sensitivity of detection: compared with Naled, Carbofuran, Paraoxon; for sensitivity of the test (in words): in water, gelatin-trehalose protected.

The target of series [1] is T2, acetylcholinesterase (Torpedo marmorata, UniProt P07692).
T2 construct: from tissue
Briefly: Analysis of pesticides in salad extracts by inhibition of acetylcholinesterase (Table IX). The series is classed as biochemical. As to conditions: read-out: % relative activity. The text has this:
The analysis of the presence of these inhibitors was done following the protocol described in example 1.

Series [2] has as its system Acetylcholinesterase, extracted from torpedo fish. Nature of the series: Stability of acetylcholinesterase-sensitized wells: residual enzymatic activity after 7 days dry storage (Table I). The series is classed as physicochemical. As to the method: After a night of incubation at 4° C., the wells were rinsed and thereafter subjected to the following analysis:
1. Control (nothing added)
2. Rinsing of the wells with buffered water (0.05 M phosphate pH 7,00) containing 15% trehalose.
3. Covering of the wells with buffered water (0.05 M phosphate pH 7,00) containing 5% gelatin (240 bloom), followed by the elimination of the gelatin without rinsing
4. Covering of the wells with buffered water (0.05 M phosphate pH 7,00) containing 5% gelatin (240 bloom) and 15% trehalose, followed by an elimination of the gelatin witout rinsing.
The gelatin was solubilized by heating at 47° C., then cooling down to 37° C. before dispensing in the wells. The wells of the microtitration plates handled in this way were placed at 4° C., 37° C. and 50° C. during 7 days in a dry incubator, then analyzed for the remaining enzymatic activity, according to Ellman's method. Results are given in adsorbances read at 412 nm (table I).

The next series concerns Horseradish peroxidase. Nature of the series: Stability of immobilized peroxidase under gelatin or albumin film containing trehalose, 7 days dry storage (Table II). Type of series: physicochemical. As to conditions: included in the gelifying film. The method, then:
Horseradish peroxidase (0.2 mg/ml) was used to sensitize the wells of microtitration plates, following the method described in example I. After sensitization during one night at 4° C., the wells were covered either with a warm solution (47° C. for the solubilisation, 37° C. for the pouring into the wells) of a 5% gelatin solution or a 5% albumin solution, both containing trehalose in decreasing concentrations starting from a concentration of 8 mg/ml. Triton X100 at a concentration of 0.04% was added to the albumin solution, as a wetting agent. The wells were immediately emptied without rinsing and were thereafter placed at 4° C. and 37° C. duiring 7 days in a dry incubator. The remaining peroxidase activity was measured by addition to the wells of 100 μl of a solution of tetramethylbenzidine and hydrogen peroxide in a citrate-phosphate buffer at pH 5.5. The blue coloration obtained changes to yellow with sulfuric acid (100 μl, 0.5 N), added to stop the enzymatic reaction. The results are given in adsorbances read at 450 nm (table II)

Series [3] concerns acetylcholinesterase. Nature of the series: Analysis of a drug in spiked serum by inhibition of acetylcholinesterase. Type of series: biochemical. As to conditions: serum of a healthy subject. The method, then:
The serum of a healthy subject was spiked with increasing concentrations of pyridostygmin and thereafter analysed for the enzymatic activity of acetylcholinesterase, following the protocol already outlined in former examples. One sees in graph 1 that the detection Of the inhibitor of AchE goes down to 1 to 2 μg/ml of this drug in serum.
The serum of a healthy subject was spiked with increasing concentrations of neostygmin and thereafter analysed for the enzymatic activity of acetylcholinesterase, following the protocol already outlined in former examples. One sees in graph 2 that the detection of this inhibitor of AchE goes down to 50 ng/ml of this drug in serum.
A serum of a healthy subject was spiked with increasing concentrations of eserin and thereafter analysed for the enzymatic activity of acetylcholinesterase, following the protocol already outlined in former examples. One sees in graph 3 that the detection of this inhibitor of AchE goes down to 100 ng/ml of this drug in serum.

T2 sequence (P07692 25-590): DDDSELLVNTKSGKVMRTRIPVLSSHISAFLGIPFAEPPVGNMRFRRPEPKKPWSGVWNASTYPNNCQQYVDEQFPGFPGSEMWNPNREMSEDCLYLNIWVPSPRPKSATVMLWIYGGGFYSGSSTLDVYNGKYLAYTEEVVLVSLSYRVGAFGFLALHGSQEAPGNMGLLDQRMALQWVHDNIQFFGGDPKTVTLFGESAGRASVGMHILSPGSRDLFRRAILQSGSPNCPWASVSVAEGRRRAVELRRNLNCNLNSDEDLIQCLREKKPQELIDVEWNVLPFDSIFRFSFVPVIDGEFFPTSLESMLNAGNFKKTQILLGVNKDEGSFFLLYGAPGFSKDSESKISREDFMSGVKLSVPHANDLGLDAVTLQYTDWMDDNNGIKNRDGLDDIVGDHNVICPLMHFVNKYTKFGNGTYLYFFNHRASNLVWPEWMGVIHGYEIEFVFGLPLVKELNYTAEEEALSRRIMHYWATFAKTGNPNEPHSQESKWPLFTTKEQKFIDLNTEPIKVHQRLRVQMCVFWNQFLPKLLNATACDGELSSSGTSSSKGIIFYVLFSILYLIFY
T1 sequence (P07692 25-590): as above

In the case of `CNC(=O)Oc1cccc2ccccc12` [Carbaryl], on torpedo fish AchE (10 μg/litre in water), the “% of Residual activity” value amounted to 80%. The “% of Residual activity” value at torpedo fish AchE (50 μg/litre in water) was found to be 61%. For the same compound, the “% of Residual activity” value on torpedo fish AchE (100 μg/litre in water) was 44%. Besides, the “% of Residual activity” value on torpedo fish AchE (1000 μg/litre in water) turned out to be 18%. Also, the “times less sensitivity of detection” value on torpedo fish AchE was 100 times. On acetylcholinesterase [1], the activity at 0.01 µg/mL worked out at 80%, the activity at 0.05 µg/mL came out at 61%, the activity at 0.1 µg/mL came out at 51% and the activity at 0.5 µg/mL was determined as 26%. The activity at 1 µg/mL at acetylcholinesterase [1] stood at 28%.
Consider `CNC(=O)Oc1cccc2c1OC(C)(C)C2` [Carbofuran], for which the “% of Residual activity” value is given as 73% at torpedo fish AchE (01 μg/litre in water); 35% at torpedo fish AchE (10 μg/litre in water); 20% at torpedo fish AchE (50 μg/litre in water); 18% at torpedo fish AchE (100 μg/litre in water); 14% at torpedo fish AchE (1000 μg/litre in water). Also, the “sensitivity of the test (in words)” value on torpedo fish AchE is recorded as “most sensitive”.
Consider `COP(=O)(OC)OC=C(Cl)Cl` [Dichlorvos], for which the “% of Residual activity” value on torpedo fish AchE (10 μg/litre in water) is listed as 80%; on torpedo fish AchE (50 μg/litre in water), 60%; on torpedo fish AchE (100 μg/litre in water), 49%; on torpedo fish AchE (1000 μg/litre in water), 3%. Also, the “times less sensitivity of detection” value on torpedo fish AchE stood at 100 times.
Regarding `COP(=O)(OC)OC(Br)C(Cl)(Cl)Br` (centres unmarked) [Naled], the “% of Residual activity” value at torpedo fish AchE (01 μg/litre in water) turned out to be 73%. In addition, the “% of Residual activity” value on torpedo fish AchE (10 μg/litre in water) amounted to 11%. Besides, the “% of Residual activity” value on torpedo fish AchE (50 μg/litre in water) amounted to 0%. In addition, at torpedo fish AchE (100 μg/litre in water), the “% of Residual activity” value is 0%. For the same compound, the “% of Residual activity” value at torpedo fish AchE (1000 μg/litre in water) came out at 0%. Also, the “sensitivity of the test (in words)” value at torpedo fish AchE is listed as “most sensitive”. Also, at acetylcholinesterase [1], the activity at 0.001 µg/mL came to 90%, the activity at 0.01 µg/mL stood at 63%, the activity at 0.05 µg/mL came out at 20% and the activity at 0.1 µg/mL is 9%. Also, the activity at 1 µg/mL at acetylcholinesterase [1] was 3%.
For the compound `CCOP(=O)(OCC)Oc1ccc([N+](=O)[O-])cc1` [Paraoxon], the “% of Residual activity” value on torpedo fish AchE (01 μg/litre in water) turned out to be 80%; on torpedo fish AchE (10 μg/litre in water) it was 40%; at torpedo fish AchE (50 μg/litre in water), 0%; on torpedo fish AchE (100 μg/litre in water), 0%; on torpedo fish AchE (1000 μg/litre in water), 0%. Also, the “sensitivity of the test (in words)” value at torpedo fish AchE was “followed closely”.
For the compound `OC[C@H]1O[C@H](O[C@H]2O[C@H](CO)[C@@H](O)[C@H](O)[C@H]2O)[C@H](O)[C@@H](O)[C@@H]1O` [Trehalose, α-D glucopyranosyl-α-D-glucopyranoside], the “Residual enzymatic activity after storage of AchE-sensitized wells during 7 days” value is 1.88 adsorbances read at 412 nm in series [2] (4° C.), 0.97 adsorbances read at 412 nm in series [2] (37° C.) and 0.12 adsorbances read at 412 nm in series [2] (50° C.). For the same compound, the “concentration of trehalose sufficient and necessary to stabilize the dry enzyme” value in the series on Horseradish peroxidase is on record as “Two”.
As to `CNC(=O)Oc1ccc2c(c1)[C@]1(C)CCN(C)[C@@H]1N2C` [eserin], in the series on acetylcholinesterase [3], the “detection of this inhibitor of AchE goes down to” value was 100 ng/mL.
On the same count and under the same terms, next, `CN(C)C(=O)Oc1cccc([N+](C)(C)C)c1` [neostygmin]: 50 ng/mL.
